SMILES strings stand for the structures. Entries after “also recorded” stand apart in the source; their conditions may differ. Where only a bound is given, the exact number is not on record here.

Test [1] deals with NIH/3T3 cells. In words: Long-term cell proliferation assay for GCV sensitivity (colony formation). Type of test: cell-based. As for the experimental part:
Uninfected NIH/3T3 cells and the infected NIH/3T3 cell pools were plated at relatively low cell density (10^4 cells/[…]) in complete growth medium and allowed to attach for 4 hours. The medium was then supplemented with hygromycin B (500 μg/ml), with or without 1 μM GCV, and the cells incubated for a period of 10 days. The medium was then removed and the cells were fixed in situ with 100% methanol and stained with methylene blue. […] Colonies of cells resistant to both Hm and GCV were obtained at a low frequency (10^−4-10^−3) from the retrovirus-infected populations (FIG. 6, plates e and g). The proviruses present in the cells that gave rise to these colonies had likely suffered point mutations, or very small deletions or rearrangements in the HSV-I TK moiety which eliminated the ability to phosphorylate GCV. Similar results were also obtained with Rat-2 cell lines infected with tgLS(+)HyTK or with tgLS(−)CMV/HyTK (data not shown).

For test [2], the system named is NIH/3T3 cells. The experiment in a line: Long-term proliferation assay for 5-FC sensitivity. Type of test: cell-based. As to conditions: 10-14 days. As for the experimental part: C. Negative Selection of Cells Containing the CD-neo (SEQ ID NO:3 Selectable Fusion Gene. To investigate the utility of the neo and CD-neo (SEQ ID NO:3 selectable fusion genes for negative selection, the colonies resulting from each transfection were pooled and expanded into cell lines for further analysis. The NIH/3T3 cells, or NIH/3T3 cells infected with the tgLS(+)neo or tgLS(+)CD-neo retroviruses were assayed for 5-FC^s using a long-term proliferation assay.
First, 1×10^4 cells were seeded into 10 cm tissue culture dishes in complete growth medium and allowed to attach for 4 hours. The medium was then supplemented with various concentrations of G-418 and/or 5-FC (Sigma), after which the cells were incubated for a further 10-14 days. The medium was replaced every 2-4 days. The cells were then fixed in situ with 100% methanol and stained with methylene blue.

In another test the test system is transfected Rat-2 cells. The experiment in a line: Short term cell proliferation assay for GCV sensitivity. Type of test: cell-based. The procedure: (§1) C. Negative Selection of Cells Containing the HyTK (SEQ ID NO:1 Selectable Fusion Gene. To investigate the utility of the HyTK (SEQ ID NO:1 selectable fusion gene for negative selection, the colonies resulting from each transfection (Table 1) were pooled and expanded into cell lines for further analysis. The Hm^r NIH/3T3 cell pools and the Hm^r and HAT^r Rat-2 cell pools were tested for GCV^s in a short term cell proliferation assay as follows.
(§2) The transfected NIH/3T3 and Rat-2 cells (3×10^4 of each) were seeded into 9-cm tissue culture dishes in complete growth medium, and allowed to attach for 4 hours. The medium was then supplemented with various concentrations of GCV (Syntex, Palo Alto, Calif.), and the cells incubated for an additional 60 hours. At this time, the medium was removed, the attached cells were harvested by trypsinization and stained with trypan blue, and the viable cells were counted. Cell growth was expressed as a fraction of the cell growth observed in the absence of GCV. The results shown are the average of triplicate assays.

The subject of test [3] is transfected NIH/3T3 cells. The description is as above. Type of test: cell-based. The procedure:
as §1, §2

The test system of the next test is murine sarcoma (K3T3). The following applies: syngeneic mice; Moolten and Wells 1990; cited from earlier work.
Test [4] deals with cells expressing the HSV-I TK gene. As to conditions: cited from earlier work.
The mark [5] stands for this setting: NIH/3T3 cells infected with tgLS(+)CD-neo, 800 μg/ml G-418, 100 μg/ml 5-FC.
The mark [6] stands for this setting: NIH/3T3 cells infected with tgLS(+)neo, 800 μg/ml G-418, 100 μg/ml 5-FC.
Setting [7] is: uninfected NIH/3T3 cells, 800 μg/ml G-418 or 100 μg/ml 5-FC.

On to `CN[C@H]1C[C@@H](N)[C@H](O)[C@@H](O[C@@H]2O[C@H](CO)[C@H](O)[C@@H]3OC4(O[C@H]23)O[C@H]([C@@H](N)CO)[C@H](O)[C@H](O)[C@H]4O)[C@@H]1O` (stereo partly drawn) [Hm, hygromycin B], for which the “Growth of uninfected cells in Hm” value with NIH/3T3 cells [1] (uninfected NIH/3T3, 500 μg/ml Hm, 10 days) is recorded as “completely killed”.

On to `Nc1nc(=O)[nH]cc1F` [5-FC, 5-fluorocytosine], for which the figures for the “Sensitivity or resistance of cells to the drug” value in the test on NIH/3T3 cells [2] (setting [5]), in the test on NIH/3T3 cells [2] (setting [6]) and with NIH/3T3 cells [2] (setting [7]) were “sensitive”, “resistant” and “resistant”, respectively.

With `CN[C@@H]1[C@@H](O)[C@@H](O[C@@H]2[C@@H](O)[C@H](O[C@H]3O[C@H]([C@@H](C)O)[C@@H](O)[C@H](O)[C@H]3N)[C@@H](N)C[C@H]2N)OC[C@]1(C)O` [G-418], the “Sensitivity or resistance of cells to the drug” value with NIH/3T3 cells [2] (setting [5]) is on record as “resistant”; in the test with NIH/3T3 cells [2] (setting [6]), “resistant”; in the test on NIH/3T3 cells [2] (setting [7]), “sensitive”.

Regarding `Nc1nc(O)c2ncn(COC(CO)CO)c2n1` [GCV, ganciclovir], the “Sensitivity to GCV of Rat-2 cell pools transfected with tgCMV/HyTK relative to Rat-2 cells transfected with tgCMV/TK” value in the test with transfected Rat-2 cells (Rat-2, both Hm^r and HAT^r selected pools) is on record as “over 30 fold”. The “Effect of GCV on cell growth” value in the test on transfected Rat-2 cells (Rat-2 cells transfected with tgCMV/HyTK (selected for Hm^r or HAT^r), lowest concentration 0.03 μM GCV) is recorded as “inhibits growth; also recorded: almost completely inhibited”; with transfected Rat-2 cells (Rat-2 cells transfected with tgCMV/TK, higher concentrations required than for tgCMV/HyTK cells), “inhibits growth; also recorded: inhibited”; in the test on transfected Rat-2 cells (Rat-2 cells transfected with tgCMV/hygro, 0.03 μM-1.0 μM GCV), “did not inhibit growth; also recorded: not inhibited”; in test [3] (NIH/3T3 cells transfected with tgCMV/HyTK), “inhibits growth”; in test [3] (NIH/3T3 cells transfected with tgCMV/hygro, 0.03 μM-1.0 μM GCV) it was “does not inhibit growth; also recorded: not adversely affected”. The inhibition at 1 µM in test [3] (Mus musculus, NIH3T3, NIH/3T3 cells transfected with tgCMV/HyTK, 1 μM GCV, 60 hours, read-out: Degree of inhibition of cell growth) was about 100%. Also, the “Growth as measured by colony formation” value with NIH/3T3 cells [1] (NIH/3T3 cell pools infected with tgLS(+)HyTK or tgLS(−)CMV/HyTK, 500 μg/ml hygromycin B plus 1 μM GCV, 10 days) is given as “almost completely inhibited”. Also, the “Infected cells killed by GCV” value in the test on NIH/3T3 cells [1] (cells infected with HyTK retroviral vectors) is on record as over 99.9%. For the same compound, the “Frequency of colonies resistant to both Hm and GCV” value with NIH/3T3 cells [1] (retrovirus-infected NIH/3T3 populations, 500 μg/ml Hm plus 1 μM GCV) is reported as 10^−4-10^−3. Further, the “Growth of uninfected cells in GCV” value with NIH/3T3 cells [1] (uninfected NIH/3T3, 1 μM GCV, 10 days) is on record as “resistant”. Besides, in the test on murine sarcoma (K3T3), the “Eradication of tumors induced by the sarcoma cells” value is recorded as “completely eradicated”. Further, in test [4] (same transgenic mice, Moolten et al. 1990), the “Regression of Abelson leukemia virus-induced lymphomas” value was “full regression”. Besides, the “Ablation of cells expressing the HSV-I TK gene” value in test [4] (transgenic animals, Heyman et al. 1989) is “selective ablation”.

The inhibition is the change of the read-out against control, counted positive when it falls.

The values above are taken from US6555370B1, “Bifunctional selectable fusion genes” (Immunex Corporation, priority 1990, dated 2003).
